Measurements: ChEMBL document CHEMBL1151867, “Two novel monoterpene-chalcone conjugates isolated from the seeds of Alpinia katsumadai” (Bioorg Med Chem Lett, 2009)
Values after ≈ are worked out from the molar mass of the structure shown.

Experiments:
Format in all cases: functional, cell-based
[1] = tested on: MDA-MB-435; assay: Cytotoxicity against human MDA-MB-435 cells by MTT method
[2] = tested on: MCF7; assay: Cytotoxicity against human MCF7 cells by MTT method
[3] = tested on: HepG2; assay: Cytotoxicity against human HepG2 cells by MTT method

CC(C)[C@H]1C=C[C@]2(C)Oc3c(C(=O)/C=C/c4ccccc4)c(O)cc(O)c3C2C1 (stereo partly drawn) [Sumadain C]
IC50 [1]: 12.8 µg/mL (≈ 32.7 µM)
IC50 [2]: 15.9 µg/mL (≈ 40.8 µM)
IC50 [3]: 13 µg/mL (≈ 33.3 µM)
